Source: patent publication US8946266B2, “Substituted triazole and imidazole derivatives as gamma secretase modulators” (Janssen Pharmaceuticals, Inc., priority 2009, dated 2015)
Where two headings read alike, the source gives them in different places.

Key:
Aβ42 [1] = assay: γ-secretase-modulating activity, Method 2: Aβ42 Alphalisa in supernatant of SKNBE2 cells carrying APP 695-wild type (Table 3b); type: cell-based; conditions: overnight
In short: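 Aβ42 in the supernatant was quantified by AlphaLISA sandwich (JRF/cAβ42/26 with JRF/AβN/25). Cells were wild-type APP695 SKNBE2, exposed to compound overnight at 37° C., 5% CO2. Data were normalised to untreated maximum and fitted with a four-parameter curve to give IC50.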

Aβtotal [2] = assay: In vivo efficacy, Method 2: brain soluble Aβtotal lowering 4 h after a single oral dose, ELISA (Table 4b); design: species or system mouse; conditions: dose 30 mg/kg oral dosing
Source text: (§1) To determine whether acute administration of an Aβ42 lowering agent would reduce Aβ42 levels in vivo, non-transgenic rodents, e.g. mice or rats were used. Animals treated with the Aβ42 lowering agent were examined and compared to those untreated or treated with vehicle and brain levels of soluble Aβ42 and total Aβ were quantitated by standard techniques, for example, using ELISA. Treatment periods varied from hours (h) to days and were adjusted based on the results of the Aβ42 lowering once a time course of onset of effect could be established.
(§2) A typical protocol for measuring Aβ42 lowering in vivo is shown but it is only one of many variations that could be used to optimize the levels of detectable Aβ. For example, Aβ42 lowering compounds were formulated in 20% of Captisol® (a sulfobutyl ether of β-cyclodextrin) in water or 20% hydroxypropyl β cyclodextrin. The Aβ42 lowering agents were administered as a single oral dose or by any acceptable route of administration to overnight fasted animals. After 4 h, the animals were sacrificed and Aβ42 levels were analysed.
(§3) Blood was collected by decapitation and exsanguinations in EDTA-treated collection tubes. Blood was centrifuged at 1900 g for 10 minutes (min) at 4° C. and the plasma recovered and flash frozen for later analysis. The brain was removed from the cranium and hindbrain. The cerebellum was removed and the left and right hemisphere were separated. The left hemisphere was stored at −18° C. for quantitative analysis of test compound levels. The right hemisphere was rinsed with phosphate-buffered saline (PBS) buffer and immediately frozen on dry ice and stored at −80° C. until homogenization for biochemical assays.
(§4) Mouse brains from non-transgenic animals were resuspended in 8 volumes of 0.4% DEA (diethylamine)/50 mM NaCl containing protease inhibitors (Roche-11873580001 or 04693159001) per gram of tissue, e.g. for 0.158 g brain, add 1.264 ml of 0.4% DEA. All samples were homogenized in the FastPrep-24 system (MP Biomedicals) using lysing matrix D (MPBio #6913-100) at 6 m/s for 20 seconds. Homogenates were centrifuged at 221.300×g for 50 min. The resulting high speed supernatants were then transferred to fresh eppendorf tubes. Nine parts of supernatant were neutralized with 1 part 0.5 M Tris-HCl pH 6.8 and used to quantify Aβtotal and Aβ42.
(§5) To quantify the amount of Aβtotal and Aβ42 in the soluble fraction of the brain homogenates, Enzyme-Linked-Immunosorbent-Assays were used. Briefly, the standards (a dilution of synthetic Aβ1-40 and Aβ1-42, Bachem) were prepared in 1.5 ml Eppendorf tube in Ultraculture, with final concentrations ranging from 10000 to 0.3 pg/ml. The samples and standards were co-incubated with HRPO-labelled N-terminal antibody for Aβ42 detection and with the biotinylated mid-domain antibody 4G8 for Aβtotal detection. 50 μl of conjugate/sample or conjugate/standards mixtures were then added to the antibody-coated plate (the capture antibodies selectively recognize the C-terminal end of Aβ42, antibody JRF/cAβ42/26, for Aβ42 detection and the N-terminus of Aβ, antibody JRF/rAβ/2, for Aβtotal detection). The plate was allowed to incubate overnight at 4° C. in order to allow formation of the antibody-amyloid complex. Following this incubation and subsequent wash steps the ELISA for Aβ42 quantification was finished by addition of Quanta Blu fluorogenic peroxidase substrate according to the manufacturer's instructions (Pierce Corp., Rockford, Ill.). A reading was performed after 10 to 15 min (excitation 320/emission 420).
For Aβtotal detection, a Streptavidine-Peroxidase-Conjugate was added, followed 60 min later by an additional wash step and addition of Quanta Blu fluorogenic peroxidase substrate according to the manufacturer's instructions (Pierce Corp., Rockford, Ill.). A reading was performed after 10 to 15 min (excitation 320 nm/emission 420 nm).
(§6) The results are shown in Table 4b (dose 30 mg/kg oral dosing): […]

Aβ42 [3] = assay: In vivo efficacy, Method 2: brain soluble Aβ42 lowering 4 h after a single oral dose, ELISA (Table 4b); design: species or system mouse; conditions: dose 30 mg/kg oral dosing
Source text: as §1, §2, §3, §4, §5
In this model at least 20% Aβ42 lowering compared to untreated animals would be advantageous.
as §6

Aβtotal [4] = assay: γ-secretase-modulating activity, Method 2: Aβtotal Alphalisa in supernatant of SKNBE2 cells carrying APP 695-wild type (Table 3b); type: cell-based; conditions: overnight, read-out: IC50 Aβtot
In short: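 Secreted Aβtotal was quantified by AlphaLISA pairing an N-terminal antibody (JRF/AβN/25) with biotinylated mid-region 4G8. Wild-type APP 695 SKNBE2 cells received serially varied compound overnight at 37 °C; IC50 came from a 4-parameter nonlinear regression of percent of control against log dose.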

Compound	IC50 (Aβ42 [1])	Aβtotal (% Ctrl) _Mean (Aβtotal [2])	Aβ42 (% Ctrl) _Mean (Aβ42 [3])	IC50 (Aβtotal [4])	IC50 (Aβ42 [1]; Homo sapiens)	IC50 (Aβtotal [4]; Homo sapiens)
COc1nc(-c2nc(N3CCCC(c4ccccc4)C3)n(C(C)C)n2)ccc1-n1cnc(C)c1.Cl (racemic) [Compound 80]	56 nM	−19 % Ctrl	−20 % Ctrl	10000 nM	–	–
COc1cc(-c2nc(Nc3cc([S+](C)[O-])ccc3F)n(C)n2)ccc1-n1cnc(C)c1 (racemic) [Compound 330]	603 nM	−2 % Ctrl	−9 % Ctrl	68 nM	–	–
COc1cc(-c2nc(Nc3ccccc3C(C)C)n(C)n2)ccc1-n1cnc(C)c1 [Compound 99]	19 nM	−2 % Ctrl	58 % Ctrl	> 10000 nM	–	–
COc1nc(-c2nc(Nc3cccc(Cl)c3)n(C)n2)ccc1-n1cnc(C)c1 [Compound 100]	28 nM	−4 % Ctrl	12 % Ctrl	> 10000 nM	–	–
COc1cc(-c2nc(Nc3ccccc3F)n(C)n2)ccc1-n1cnc(C)c1 [Compound 105]	132 nM	−7 % Ctrl	24 % Ctrl	> 10000 nM	–	–
COc1cc(-c2nc(Nc3cc(Cl)ccc3Cl)n(C)n2)ccc1-n1cnc(C)c1 [Compound 111]	13 nM	15 % Ctrl	33 % Ctrl	> 10000 nM	–	–
COc1cc(-c2nc(Nc3cccc(F)c3Cl)n(C)n2)ccc1-n1cnc(C)c1 [Compound 114]	56 nM	9 % Ctrl	53 % Ctrl	> 10000 nM	–	–
COc1nc(-c2nc(Nc3cc(Cl)ccc3F)n(C)n2)ccc1-n1cnc(C)c1 [Compound 117]	60 nM	17 % Ctrl	44 % Ctrl	> 10000 nM	–	–
COc1cc(-c2nc(Nc3cc(Cl)ccc3F)n(C)n2)ccc1-n1cnc(C)c1 [Compound 123]	58 nM	31 % Ctrl	36 % Ctrl	> 10000 nM	–	–
COc1cc(-c2nc(Nc3c(F)cccc3Cl)n(C)n2)ccc1-n1cnc(C)c1 [Compound 125]	85 nM	11 % Ctrl	2 % Ctrl	> 10000 nM	–	–
COc1cc(-c2nc3n(n2)CCOC3c2cc(OC(F)(F)F)ccc2F)ccc1-n1cnc(C)c1 (centres unmarked) [Compound 128]	28 nM	24 % Ctrl	47 % Ctrl	> 10000 nM	–	–
COc1cc(-c2nc(Nc3cccc(Cl)c3C)n(C)n2)ccc1-n1cnc(C)c1 [Compound 129]	25 nM	9 % Ctrl	56 % Ctrl	> 10000 nM	–	–
COc1nc(-c2nc(Nc3ccccc3C(F)(F)F)n(C)n2)ccc1-n1cnc(C)c1 [Compound 132]	135 nM	−1 % Ctrl	39 % Ctrl	> 10000 nM	–	–
COc1cc(-c2nc(Nc3cc(C(F)(F)F)ccc3F)n(CC(C)(C)O)n2)ccc1-n1cnc(C)c1 [Compound 136]	76 nM	1 % Ctrl	−14 % Ctrl	3020 nM	–	–
COc1nc(-c2nc(Nc3cccc(F)c3C(F)(F)F)n(C)n2)ccc1-n1cnc(C)c1 [Compound 138]	50 nM	17 % Ctrl	46 % Ctrl	> 10000 nM	–	–
COc1cc(-c2nc(Nc3cc(C(F)(F)F)cc(F)c3F)n(C)n2)ccc1-n1cnc(C)c1 [Compound 140]	20 nM	8 % Ctrl	33 % Ctrl	> 10000 nM	–	–
COc1cc(-c2nc(Nc3cc(C(F)(F)F)ccc3C(F)(F)F)n(C)n2)ccc1-n1cnc(C)c1 [Compound 144]	9 nM	9 % Ctrl	38 % Ctrl	> 10000 nM	–	–
COc1cc(-c2nc(Nc3cccc(C(F)(F)F)c3F)n(C)n2)ccc1-n1cnc(C)c1 [Compound 148]	23 nM	12 % Ctrl	37 % Ctrl	> 10000 nM	–	–
COc1cc(-c2nc(Nc3cc(C(F)(F)F)cc(C(F)(F)F)c3)n(C)n2)ccc1-n1cnc(C)c1 [Compound 150]	13 nM	−8 % Ctrl	−6 % Ctrl	> 10000 nM	–	–
COc1cc(-c2nc(Nc3ccc(F)c(C(F)(F)F)c3)n(C)n2)ccc1-n1cnc(C)c1 [Compound 152]	19 nM	−9 % Ctrl	10 % Ctrl	> 10000 nM	–	–
COc1cc(-c2nc3n(n2)CCOC3c2cccc(F)c2C)ccc1-n1cnc(C)c1 (centres unmarked) [Compound 345]	107 nM	–	–	> 10000 nM	–	–
COc1cc(-c2nc3n(n2)CCOC3c2ccccc2OC(F)(F)F)ccc1-n1cnc(C)c1 (centres unmarked) [Compound 346]	95 nM	–	–	> 10000 nM	–	–
COc1nc(-c2nc3n(n2)CCOC3c2cccc(F)c2C)ccc1-n1cnc(C)c1 (centres unmarked) [Compound 347]	126 nM	–	–	> 10000 nM	–	–
COc1nc(-c2nc3n(n2)CCOC3c2ccccc2OC(F)(F)F)ccc1-n1cnc(C)c1 (centres unmarked) [Compound 348]	79 nM	–	–	> 10000 nM	–	–
COc1cc(-c2nc(N3CCCc4ccccc43)n(C)n2)ccc1-n1cnc(C)c1 [Compound 349]	257 nM	–	–	> 10000 nM	–	–
COc1cc(-c2nc(Nc3cc(C(F)(F)F)ccc3F)n(C)n2)ccc1-n1ccnc1 [Compound 359]	–	–	–	–	95 nM	> 10000 nM
COc1nc(-c2nc3n(n2)CCC[C@H]3c2ccc(F)cc2C)ccc1-n1cnc(C)c1 [Compound 361]	42 nM	−8 % Ctrl	32 % Ctrl	–	–	–
